Publication PMC8322648, “Brevibacillin 2V Exerts Its Bactericidal Activity via Binding to Lipid II and Permeabilizing Cellular Membranes” (Frontiers in Microbiology, 2021)
No end group written: not given here.

How the values were obtained:
[1] = system: S. aureus ATCC15975 (MRSA); assay: Spot-on-lawn assay with Lipid II; assay type: cell-based, Staphylococcus aureus; details: brevibacillins 0.68 μg, nisin and daptomycin 1.36 μg; Lipid II 300 μM, 4 μl, at edge of halo; MHA, 37°C overnight
Procedure: An overnight cultured S. aureus ATCC15975 (MRSA) was added to 0.6% MHA (w/v, temperature 42°C) at a final concentration of 0.1% (v/v), and then, the mixture was poured to the plates 10 ml for each. The binding of peptide and Lipid II ([Hasper et al., 2006]) was further evaluated by spotting of purified Lipid II (300 μm, 4 μl) to the edge of inhibition halo of antibiotics (brevibacillins, 0.68 μg; nisin and daptomycin, 1.36 μg). Briefly, antibiotics were loaded to the agar plate. After the antibiotic solution drops had dried, purified Lipid II was spotted to the edge (identified by a pre-experiment) of inhibition halo of antibiotics ([Wang et al., 2020]). After the Lipid II solution drops had dried, the plates were transferred to a 37°C incubator for overnight incubation.

[2] = membrane-embedded Lipid II; ref Islam et al., 2012; ‘t Hart et al., 2016; Bakhtiary et al., 2017; Chiorean et al., 2020; cited from earlier work
Procedure: After confirmation of the fact that brevibacillins bind to Lipid II, an ITC assay was performed to determine the binding affinity of brevibacillins for Lipid II. For this, 2 mol % Lipid II was incorporated into DOPC-based LUVs. […] Nisin, teixobactin, nukacin ISK-1, and lacticin 3147 ...

[3] = system: S. aureus ATCC15975 (MRSA); assay: Time-killing assay; assay type: cell-based, Staphylococcus aureus; details: MHB, 37°C; for time to complete killing of all cells: 10 × MIC (nisin 40 μg/ml; brevibacillins 20 μg/ml), ≈ 5 × 10^6 cells per ml, 220 rpm, triplicate
Procedure: This assay was performed according to a previously described procedure ([Ling et al., 2015]; [Zhao et al., 2020b]). An overnight culture of cells [S. aureus ATCC15975 (MRSA)] was diluted 50-fold in MHB and incubated at 37°C with aeration at 220 rpm. Bacteria were grown to an OD600 of 0.5, and then, the concentration of cells was adjusted to ≈ 5 × 10^6 cells per ml. Bacteria were then challenged with nisin (40 μg/ml), brevibacillin (20 μg/ml), brevibacillin V (20 μg/ml), brevibacillin I (20 μg/ml), or brevibacillin 2V (20 μg/ml) in culture tubes at 37°C and 220 rpm (peptides at 10 × MIC, a desirable concentration at the site of infection). Bacteria not treated with peptides were used as negative controls. At desired time points, 200 μl aliquots were taken, centrifuged at 8,000 g for 2 min, and resuspended in 200 μl of MHB. 10-fold serially diluted samples were plated on MHA plates. After incubated at 37°C overnight, colonies were counted and c.f.u. per ml was calculated. Each experiment was performed in triplicate.

[4] = system: S. aureus ATCC15975 (MRSA); assay: Fluorescence microscopy, LIVE/DEAD BacLight (SYTO 9/propidium iodide); assay type: cell-based, Staphylococcus aureus; details: 2 × MIC (brevibacillins 4 μg/ml, nisin 8 μg/ml), 15 min, room temperature
Procedure: (§1) Staphylococcus aureus ATCC15975 (MRSA) was grown to an OD600 of 0.8. The culture was pelleted at 5,000 × g for 5 min and washed three times in 10 mm HEPES with 10 mm glucose (pH 7.2). After normalization of the cell density to an OD600 of 0.2 in 10 mm HEPES with 10 mm glucose (pH 7.2), a 2-fold MIC concentration of brevibacillins (4 μg/ml) or nisin (8 μg/ml) was added. At the same time, SYTO® 9 and propidium iodide (LIVE/DEAD Baclight Bacterial Viability Kit, Invitrogen) were added to the above cell suspensions. After incubation at room temperature for 15 min, peptides were removed and washed three times with 10 mm HEPES with 10 mm glucose (pH 7.2). Then, the cell suspensions were loaded on 1.5% agarose pads and analyzed by DeltaVision Elite microscope (Applied Precision; [Zhao and Kuipers, 2021]).

S. aureus (MRSA) = assay: Membrane permeability assay, concentration series (fluorescence microscopy); assay type: cell-based, Staphylococcus aureus; details: 100 nM and 400 nM, 15 min; ratio of membrane permeabilized cells; three independent experiments; p < 0.05
Procedure: as §1
GraphPad Prism 7.0 was used to fit the data of time-killing assay, DiSC3(5) assay, fluorescence quenching assay, ITC assay, and CF Leakage assay in Figures 3–7. The fluorescence images (ratio of membrane permeabilized cells) were quantified by the software Adobe Photoshop 2021. The Kd values of brevibacillins to Lipid II were calculated using the Nano Analyze Software (Waters LLC). The statistical significance of the data was assessed using Duncan’s multiple range test with the software SPSS Statistics 26; values of p < 0.05 were considered to be statistically significant.
Figure 7 Brevibacillins disrupt membrane permeability without the need for Lipid II binding. (A), Cartoon schematic of the assay used to assess membrane permeability disruption of brevibacillins. (B), CF releases (%) vs. time graph showing the effects of adding brevibacillins to DOPC-LUVs with 0.1% Lipid II; peptide concentrations were 100 nm; a, when peptides were added; and b, when 20% Triton X-100 added. (C), CF releases (%) vs. time graph showing the effects of adding brevibacillins to LUVs of pure DOPC; peptide concentrations were 100 nm; a, when peptides were added; and b, when 20% Triton X-100 was added. (D), fluorescence microscopic images of S. aureus (MRSA) after have been treated by a series concentrations of brevibacillins and nisin for 15 min. (E), the ratio of membrane permeabilized cells that was quantified by Adobe Photoshop 2021; the data are representative of three independent experiments.
To investigate the in vivo membrane disruption capacity of brevibacillin and brevibacillin 2V, a membrane permeability assay was performed with a series of concentrations of antibiotics. Nisin was used as a control.

[5] = Pyrene-labeled Lipid II fluorescence quenching assay; assay type: binding; details: 50 μM DOPC LUVs with 0.5 mol % pyrene-labeled Lipid II, 20°C, ex 350 nm
Procedure: The effects of antibiotics on pyrene-labeled Lipid II were measured using 50 μm DOPC-based large unilamellar vesicles (LUVs) containing 0.5 mol % pyrene-labeled Lipid II ([Breukink et al., 2003]). Briefly, the LUVs were added to a quartz cuvette and titrated with nisin, brevibacillin, or brevibacillin 2V with stirring at 20°C. The fluorescence spectra were recorded between 360 and 600 nm (λex350 nm) using a Cary Eclipse Fluorescence Spectrophotometer (Agilent, United States).

[6] = ref Varney et al., 2013; Bakhtiary et al., 2017; cited from earlier work
Procedure: To investigate the role of Lipid II-binding ability of brevibacillins in their membrane disruption capacity, CF leakage assays were performed using LUVs composed of DOPC with or without Lipid II and containing CF at self-quenching concentrations. LUVs-based CF leakage assay is widely used in the studies of the antibiotic mode of action ([Hasper et al., 2004]; [Smith et al., 2008]; [Slootweg et al., 2015]; [Bakhtiary et al., 2017]). Disruption of the vesicle membrane by certain compounds releases CF from the LUVs into the extra-vesicular milieu resulting in increased fluorescence signal (Figure ...

human red blood cells = details: Figure 1, ref Zhao et al., 2021; cited from earlier work
Text: (§2) A vast number of bacterial non-ribosomally produced peptides (NRPs) have shown strong antimicrobial activity against pathogenic bacteria ([Cochrane et al., 2014]; [Cociancich et al., 2015]; [Hamamoto et al., 2015]; [Ling et al., 2015]; [Süssmuth and Mainz, 2017]). Lipo-tridecapeptides, a class of NRPs, show strong antimicrobial activity against Gram-positive pathogens, including antibiotic-resistant Staphylococcus aureus and Enterococcus spp. ([Barsby et al., 2001], [2006]; [Yang et al., 2016]; [Wu et al., 2019]; [Zhao et al., 2021]). However, many of these lipo-tridecapeptides have shown high ... || Figure 1 Structures of brevibacillins. The red color indicates the more hydrophobic amino acid residues of brevibacillin V, brevibacillin and brevibacillin I relative to brevibacillin 2V. MIC, the minimum inhibitory concentration against Staphylococcus aureus (MRSA). HC50, the 50% human blood cell hemolysis concentration. CC50, the 50% cell (HepG2) toxicity concentration.

HepG2 = details: Figure 1, ref Zhao et al., 2021; cited from earlier work
Text: as §2

[7] = system: Staphylococcus aureus (MRSA); details: Staphylococcus aureus (MRSA); Figure 1; ref Zhao et al., 2021; cited from earlier work
Text: Figure 1 Structures of brevibacillins. The red color indicates the more hydrophobic amino acid residues of brevibacillin V, brevibacillin and brevibacillin I relative to brevibacillin 2V. MIC, the minimum inhibitory concentration against Staphylococcus aureus (MRSA). HC50, the 50% human blood cell hemolysis concentration. CC50, the 50% cell (HepG2) toxicity concentration. […] LUVs-based CF leakage assay is widely used in the studies of the antibiotic mode of action ([Hasper et al., 2004]; [Smith et al., 2008]; [Slootweg et al., 2015]; [Bakhtiary et al., 2017]). Disruption of the vesicle membrane by certain compounds releases CF from the LUVs into the extra-vesicular milieu resulting in increased fluorescence signal (Figure ...

[8] = ref Zhao et al., 2021; cited from earlier work
[9] = system: S. aureus ATCC15975 (MRSA) membrane; assay: DiSC3(5) membrane potential assay; assay type: cell-based, Staphylococcus aureus; details: 2 × MIC
Procedure: Staphylococcus aureus ATCC15975 (MRSA) was grown to an OD600 of 0.8. The culture was pelleted at 5,000 × g for 5 min and washed three times in 10 mm HEPES with 10 mm glucose (pH 7.2). The cell density was normalized to an OD600 of 0.2, loaded with 2 μm DiSC3(5) dye, and incubated for 20 min in the dark for probe fluorescence to stabilize. After incubation, KCl was added to the cell suspension at a final concentration of 100 mm. Subsequently, the cell suspension was added to a 96-well microplate and incubation for 5 min; after that, antibiotics were added at a final concentration of 2 × MIC. Fluorescence was monitored for 25 min, with the antibiotics added after ~20 s. The excitation and emission wavelengths on the fluorescence spectrometer were adjusted to 622 nm and 670 nm, respectively. Representative examples from three technical replicates are shown.

[10] = 31P solid-state NMR of Lipid II in liposomes; assay type: binding; details: DOPC vesicles with 2 mol % Lys-Lipid II, 20 mM HEPES, 100 mM NaCl, pH 8; 200 nmol antibiotic, 100 nmol Lipid II; 500 MHz, 10 kHz MAS, 270 K
Procedure: Multi-lamellar vesicles of DOPC doped with 2 mol % Lys-Lipid II in buffer (20 mm HEPES, 100 mm NaCl, and pH = 8) were collected by centrifugation (60,000 × g) and loaded into 3.2 mm ssNMR rotors. For 3.2 mm rotors, we used 200 nmol of antibiotic with 100 nmol of Lipid II. The 1D ^31P ssNMR experiments were performed at 500 MHz (^1H frequency) magnetic field using 10 kHz magic angle spinning (MAS) at 270 K sample temperature.

**Q.** With “nisin: well-known Lipid II-targeting antibiotic, pore-forming, used as control (ITSISLCTPGCKTGALMGCNMKTATCHCSIHVSK; not fully specified (some residues, bridges); cysteine pairing not given here; UniProt P13068 24-57, looked up) [reference compound]” as the substance, how does the “antimicrobial activity upon addition of purified Lipid II” value [1] read?
**A.** Its value is “diminished”.

**Q.** What about the Kd [2] of the same substance?
**A.** The Kd was 14.6 nM.

**Q.** What about the “time to complete killing of all cells” value [3] of the same substance?
**A.** The value was at most 4 h.

**Q.** And the “membrane integrity (SYTO 9 / propidium iodide staining)” value [4]?
**A.** The value was “turned red, indicative of a compromised membrane”.

**Q.** What about the “membrane permeabilization capacity, comparison” value (S. aureus (MRSA)) of the same substance?
**A.** The value was “significantly (p < 0.05) higher membrane permeabilization capacity than the brevibacillins”.

**Q.** And the “excimer fluorescence (about 490 nm)” value [5]?
**A.** The value was “appearance of a fluorescence peak around 490 nm, indicating the formation of excimers”.

**Q.** What about the pyrene monomer fluorescence [5] of the same substance?
**A.** The pyrene monomer fluorescence was “clearly induced a decrease of pyrene monomer fluorescence”.

**Q.** Which results are given for lacticin 3147?
**A.** membrane disruption in Lipid II containing and Lipid II lacking LUVs [6]: cause membrane disruption in both Lipid II containing LUVs and Lipid II lacking LUVs; Kd [2]: 920 nM

**Q.** Which “membrane disruption in Lipid II containing and Lipid II lacking LUVs” value [6] does the source give for HNP-1: Lipid II-targeting antimicrobial here?
**A.** The value was “cause membrane disruption in both Lipid II containing LUVs and Lipid II lacking LUVs”.

**Q.** With daptomycin as the substance, how does the “antimicrobial activity upon addition of purified Lipid II” value [1] read?
**A.** Its value is “kept its antimicrobial activity against S. aureus (MRSA)”.

**Q.** Which “HC50, 50% human blood cell hemolysis concentration” value (human red blood cells) does the source give for Brevibacillin V here?
**A.** The value was 73.1 ± 1.4 mg/L.

**Q.** And the “CC50, 50% cell (HepG2) toxicity concentration” value (HepG2)?
**A.** Its value is 9.89 ± 0.67 µg/mL.

**Q.** And the MIC [7]?
**A.** The MIC was 2 µg/mL.

**Q.** And the “rank order of calculated hydrophobicity” value [8]?
**A.** The value was “brevibacillin I > brevibacillin > brevibacillin V > brevibacillin 2V”.

**Q.** And the “killing kinetics / capacity, in words” value ([3]; 10 × MIC (brevibacillins 20 μg/ml; nisin 40 μg/ml))?
**A.** The value was “intermediate killing capacity”.

**Q.** What about the “time to complete killing of all cells” value [3] of the same substance?
**A.** Its value is at most 2 h.

**Q.** What about the “speed of membrane permeabilization” value [9] of the same substance?
**A.** The value was “appeared to act faster than brevibacillin 2V and the well-known pore-forming antibiotic nisin”.

**Q.** What about the “rank order of membrane disruption capacity” value ([9]; correlates with calculated hydrophobicity) of the same substance?
**A.** Its value is “brevibacillin I > brevibacillin > brevibacillin V > brevibacillin 2V”.

**Q.** For vancomycin [reference compound], which “31P signals of Lipid II pyrophosphate moiety” value [10] is on record?
**A.** Its value is “no changes observed for the Lipid II pyrophosphate signals”.
